Experimental findings from US9271978B2 (Zenith Epigenetics Corp., priority 2012, dated 2016) are described below.

The experiment relates to Rat collagen-induced arthritis. Put plainly: In vivo efficacy in rat collagen-induced arthritis. Conditions: female Lewis rats, dosed Day 11 to Day 17. The procedure:
Rat collagen-induced arthritis is an experimental model of polyarthritis that has been widely used for preclinical testing of numerous anti-arthritic agents. Following administration of collagen, this model establishes a measurable polyarticular inflammation, marked cartilage destruction in association with pannus formation and mild to moderate bone resorption and periosteal bone proliferation. In this model, collagen was administered to female Lewis strain of rats on Day 1 and 7 of study and dosed with compounds from Day 11 to Day 17. Test compounds were evaluated to assess the potential to inhibit the inflammation (including paw swelling), cartilage destruction and bone resorption in arthritic rats, using a model in which the treatment is administered after the disease has been established.

On to `Cc1noc(C)c1-c1ccc(=O)n(Cc2ccc(Cl)cc2)c1` [Example 128, 1-(4-Chlorobenzyl)-5-(3,5-dimethylisoxazol-4-yl)pyridin-2(1H)-one], for which the In vivo activity entry is “Active”.
